Our source for the IC50, Activity and EC50 values is ChEMBL document CHEMBL5120855, “Potent 2,3-dihydrophthalazine-1,4-dione derivatives as dual inhibitors for mono-ADP-ribosyltransferases PARP10 and PARP15” (Eur J Med Chem, 2022).

Each structure is given as a SMILES string.

For data set [1], the target named is T1, Protein mono-ADP-ribosyltransferase PARP10 (Homo sapiens, UniProt Q53GL7).
T1 sequence (Q53GL7 whole entry): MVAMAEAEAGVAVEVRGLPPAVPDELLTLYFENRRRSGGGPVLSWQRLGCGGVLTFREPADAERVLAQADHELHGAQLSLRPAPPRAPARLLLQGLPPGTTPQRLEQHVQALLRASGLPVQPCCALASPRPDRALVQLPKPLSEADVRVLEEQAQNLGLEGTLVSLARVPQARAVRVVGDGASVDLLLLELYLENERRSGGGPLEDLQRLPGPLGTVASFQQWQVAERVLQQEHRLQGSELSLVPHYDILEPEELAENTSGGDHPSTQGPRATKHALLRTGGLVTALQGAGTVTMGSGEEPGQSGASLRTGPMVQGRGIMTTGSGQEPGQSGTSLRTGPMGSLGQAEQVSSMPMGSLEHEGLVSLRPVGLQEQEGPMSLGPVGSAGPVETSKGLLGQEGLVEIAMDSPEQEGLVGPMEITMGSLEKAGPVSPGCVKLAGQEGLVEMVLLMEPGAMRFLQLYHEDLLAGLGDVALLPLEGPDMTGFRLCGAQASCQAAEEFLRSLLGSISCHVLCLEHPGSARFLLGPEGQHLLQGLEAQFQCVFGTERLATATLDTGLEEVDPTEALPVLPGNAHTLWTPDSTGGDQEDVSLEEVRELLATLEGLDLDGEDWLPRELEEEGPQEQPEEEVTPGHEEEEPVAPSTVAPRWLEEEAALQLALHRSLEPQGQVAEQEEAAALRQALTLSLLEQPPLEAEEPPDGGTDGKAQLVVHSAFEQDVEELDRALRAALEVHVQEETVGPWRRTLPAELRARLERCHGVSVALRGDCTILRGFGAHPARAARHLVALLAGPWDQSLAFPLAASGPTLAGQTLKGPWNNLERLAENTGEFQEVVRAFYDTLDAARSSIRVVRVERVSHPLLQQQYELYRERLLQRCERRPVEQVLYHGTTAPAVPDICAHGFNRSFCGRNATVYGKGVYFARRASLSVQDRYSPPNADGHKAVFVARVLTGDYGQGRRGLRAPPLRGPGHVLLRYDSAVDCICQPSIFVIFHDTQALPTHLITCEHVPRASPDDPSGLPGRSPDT
Put plainly: Inhibition of human PARP-10 using NAD+ as substrate incubated for 10 mins by fluorescence based analysis.

The next data set relates to HEK-293T. As to the kind of experiment: Cytotoxicity against HEK293T cells assessed as reduction in cell viability at 10 uM measured after 24 hrs by WST-1 assay. Type of data set: toxicity, cell-based. Conditions: human. For orientation: Tetrazolium assays rely on reduction of a dye to a coloured formazan, in cell work by metabolically active cells.
For data set [2], the target named is T2, Poly [ADP-ribose] polymerase tankyrase-2 (Homo sapiens, UniProt Q9H2K2).
T2 sequence (Q9H2K2 whole entry): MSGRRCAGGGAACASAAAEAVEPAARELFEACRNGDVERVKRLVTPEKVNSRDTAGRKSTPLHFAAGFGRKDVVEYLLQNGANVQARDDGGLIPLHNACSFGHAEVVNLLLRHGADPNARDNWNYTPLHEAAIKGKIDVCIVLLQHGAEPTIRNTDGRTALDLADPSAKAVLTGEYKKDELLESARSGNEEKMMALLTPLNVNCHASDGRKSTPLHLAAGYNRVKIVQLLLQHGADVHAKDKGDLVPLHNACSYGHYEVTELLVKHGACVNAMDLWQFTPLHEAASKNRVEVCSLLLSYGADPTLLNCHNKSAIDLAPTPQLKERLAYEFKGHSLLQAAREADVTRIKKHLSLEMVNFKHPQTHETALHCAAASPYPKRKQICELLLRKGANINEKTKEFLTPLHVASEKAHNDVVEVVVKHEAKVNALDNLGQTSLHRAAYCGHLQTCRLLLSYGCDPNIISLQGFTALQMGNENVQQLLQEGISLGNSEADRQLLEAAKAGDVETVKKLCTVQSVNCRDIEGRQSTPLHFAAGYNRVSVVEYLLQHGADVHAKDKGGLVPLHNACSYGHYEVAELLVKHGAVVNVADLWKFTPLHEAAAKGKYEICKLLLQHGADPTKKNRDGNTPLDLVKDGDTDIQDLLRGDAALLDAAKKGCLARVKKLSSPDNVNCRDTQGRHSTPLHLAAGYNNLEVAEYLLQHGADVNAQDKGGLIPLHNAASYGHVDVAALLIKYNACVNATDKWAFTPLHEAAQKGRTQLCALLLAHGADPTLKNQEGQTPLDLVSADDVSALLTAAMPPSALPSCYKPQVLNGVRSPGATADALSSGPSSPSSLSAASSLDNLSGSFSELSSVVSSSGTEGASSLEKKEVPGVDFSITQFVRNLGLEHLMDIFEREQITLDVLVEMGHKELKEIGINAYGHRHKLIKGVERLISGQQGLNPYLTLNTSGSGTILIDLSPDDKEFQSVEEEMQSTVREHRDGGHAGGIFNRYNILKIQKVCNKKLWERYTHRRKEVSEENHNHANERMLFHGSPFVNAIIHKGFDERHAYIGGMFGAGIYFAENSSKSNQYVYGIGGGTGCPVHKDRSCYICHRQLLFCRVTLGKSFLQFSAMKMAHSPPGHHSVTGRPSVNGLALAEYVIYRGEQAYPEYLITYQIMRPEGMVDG
Put plainly: Inhibition of human N-terminal 6His-tagged TNKS2 (1030 to 1317 residues) expressed in Escherichia coli Rosetta2 (DE3) cells using NAD+ as substrate incubated for 10 mins by fluorescence based analysis.

For data set [3], the target named is Poly [ADP-ribose] polymerase 2 (Homo sapiens, UniProt Q9UGN5). Put plainly: Inhibition of human PARP2 using NAD+ as substrate incubated for 10 mins by fluorescence based analysis.
In data set [4] the target is T3, Protein mono-ADP-ribosyltransferase PARP15 (Homo sapiens, UniProt Q460N3).
T3 sequence (Q460N3 whole entry): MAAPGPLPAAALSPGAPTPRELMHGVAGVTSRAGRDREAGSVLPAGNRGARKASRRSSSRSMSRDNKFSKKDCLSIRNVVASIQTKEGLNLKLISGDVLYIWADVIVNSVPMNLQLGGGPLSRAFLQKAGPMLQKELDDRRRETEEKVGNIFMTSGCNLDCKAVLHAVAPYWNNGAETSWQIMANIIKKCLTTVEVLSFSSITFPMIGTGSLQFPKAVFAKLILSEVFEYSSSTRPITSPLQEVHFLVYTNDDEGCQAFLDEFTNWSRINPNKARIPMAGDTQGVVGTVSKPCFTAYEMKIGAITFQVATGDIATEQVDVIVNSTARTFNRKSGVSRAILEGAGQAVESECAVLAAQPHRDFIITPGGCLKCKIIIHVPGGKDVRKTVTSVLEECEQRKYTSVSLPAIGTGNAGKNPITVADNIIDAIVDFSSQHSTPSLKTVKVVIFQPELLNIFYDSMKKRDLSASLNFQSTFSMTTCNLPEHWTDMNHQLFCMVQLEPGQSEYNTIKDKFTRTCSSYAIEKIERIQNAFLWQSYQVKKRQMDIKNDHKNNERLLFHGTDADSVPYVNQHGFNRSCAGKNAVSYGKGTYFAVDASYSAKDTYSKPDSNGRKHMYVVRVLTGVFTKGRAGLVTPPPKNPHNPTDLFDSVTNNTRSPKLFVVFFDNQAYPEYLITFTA
Put plainly: Inhibition of human N-terminal 6His-tagged PARP15 (460 to 656 residues) expressed in Escherichia coli Rosetta2 (DE3) cells using NAD+ as substrate incubated for 10 mins by fluorescence based analysis.

Data set [5] concerns the target Protein mono-ADP-ribosyltransferase PARP14 (Homo sapiens, UniProt Q460N5). Put plainly: Inhibition of human PARP14 using NAD+ as substrate incubated for 10 mins by fluorescence based analysis.
The test system of a further data set is HeLa. Put plainly: Rescue of cell viability in human HeLa cells expressing wild type PARP10 at upto 10 uM incubated for 10 to 12 days by methylene blue dye based colony formation assay. Type of data set: functional.

Poly [ADP-ribose] polymerase 2, sequence (Q9UGN5 whole entry): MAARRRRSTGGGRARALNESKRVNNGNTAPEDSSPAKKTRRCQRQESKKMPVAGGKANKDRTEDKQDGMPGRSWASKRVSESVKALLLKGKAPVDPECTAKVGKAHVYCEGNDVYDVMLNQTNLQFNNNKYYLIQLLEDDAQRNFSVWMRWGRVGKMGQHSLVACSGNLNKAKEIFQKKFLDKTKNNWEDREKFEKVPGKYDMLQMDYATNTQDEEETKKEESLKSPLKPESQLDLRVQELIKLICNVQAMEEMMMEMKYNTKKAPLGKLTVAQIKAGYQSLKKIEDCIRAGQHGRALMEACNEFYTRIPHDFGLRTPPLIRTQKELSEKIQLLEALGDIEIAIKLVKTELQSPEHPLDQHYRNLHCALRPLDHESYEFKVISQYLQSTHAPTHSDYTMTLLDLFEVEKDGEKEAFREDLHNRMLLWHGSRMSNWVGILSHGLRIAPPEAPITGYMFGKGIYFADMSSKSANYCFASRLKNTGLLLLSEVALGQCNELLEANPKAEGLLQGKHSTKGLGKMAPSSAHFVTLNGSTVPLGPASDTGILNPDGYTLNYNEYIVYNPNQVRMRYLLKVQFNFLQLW
Protein mono-ADP-ribosyltransferase PARP14, sequence (Q460N5 whole entry): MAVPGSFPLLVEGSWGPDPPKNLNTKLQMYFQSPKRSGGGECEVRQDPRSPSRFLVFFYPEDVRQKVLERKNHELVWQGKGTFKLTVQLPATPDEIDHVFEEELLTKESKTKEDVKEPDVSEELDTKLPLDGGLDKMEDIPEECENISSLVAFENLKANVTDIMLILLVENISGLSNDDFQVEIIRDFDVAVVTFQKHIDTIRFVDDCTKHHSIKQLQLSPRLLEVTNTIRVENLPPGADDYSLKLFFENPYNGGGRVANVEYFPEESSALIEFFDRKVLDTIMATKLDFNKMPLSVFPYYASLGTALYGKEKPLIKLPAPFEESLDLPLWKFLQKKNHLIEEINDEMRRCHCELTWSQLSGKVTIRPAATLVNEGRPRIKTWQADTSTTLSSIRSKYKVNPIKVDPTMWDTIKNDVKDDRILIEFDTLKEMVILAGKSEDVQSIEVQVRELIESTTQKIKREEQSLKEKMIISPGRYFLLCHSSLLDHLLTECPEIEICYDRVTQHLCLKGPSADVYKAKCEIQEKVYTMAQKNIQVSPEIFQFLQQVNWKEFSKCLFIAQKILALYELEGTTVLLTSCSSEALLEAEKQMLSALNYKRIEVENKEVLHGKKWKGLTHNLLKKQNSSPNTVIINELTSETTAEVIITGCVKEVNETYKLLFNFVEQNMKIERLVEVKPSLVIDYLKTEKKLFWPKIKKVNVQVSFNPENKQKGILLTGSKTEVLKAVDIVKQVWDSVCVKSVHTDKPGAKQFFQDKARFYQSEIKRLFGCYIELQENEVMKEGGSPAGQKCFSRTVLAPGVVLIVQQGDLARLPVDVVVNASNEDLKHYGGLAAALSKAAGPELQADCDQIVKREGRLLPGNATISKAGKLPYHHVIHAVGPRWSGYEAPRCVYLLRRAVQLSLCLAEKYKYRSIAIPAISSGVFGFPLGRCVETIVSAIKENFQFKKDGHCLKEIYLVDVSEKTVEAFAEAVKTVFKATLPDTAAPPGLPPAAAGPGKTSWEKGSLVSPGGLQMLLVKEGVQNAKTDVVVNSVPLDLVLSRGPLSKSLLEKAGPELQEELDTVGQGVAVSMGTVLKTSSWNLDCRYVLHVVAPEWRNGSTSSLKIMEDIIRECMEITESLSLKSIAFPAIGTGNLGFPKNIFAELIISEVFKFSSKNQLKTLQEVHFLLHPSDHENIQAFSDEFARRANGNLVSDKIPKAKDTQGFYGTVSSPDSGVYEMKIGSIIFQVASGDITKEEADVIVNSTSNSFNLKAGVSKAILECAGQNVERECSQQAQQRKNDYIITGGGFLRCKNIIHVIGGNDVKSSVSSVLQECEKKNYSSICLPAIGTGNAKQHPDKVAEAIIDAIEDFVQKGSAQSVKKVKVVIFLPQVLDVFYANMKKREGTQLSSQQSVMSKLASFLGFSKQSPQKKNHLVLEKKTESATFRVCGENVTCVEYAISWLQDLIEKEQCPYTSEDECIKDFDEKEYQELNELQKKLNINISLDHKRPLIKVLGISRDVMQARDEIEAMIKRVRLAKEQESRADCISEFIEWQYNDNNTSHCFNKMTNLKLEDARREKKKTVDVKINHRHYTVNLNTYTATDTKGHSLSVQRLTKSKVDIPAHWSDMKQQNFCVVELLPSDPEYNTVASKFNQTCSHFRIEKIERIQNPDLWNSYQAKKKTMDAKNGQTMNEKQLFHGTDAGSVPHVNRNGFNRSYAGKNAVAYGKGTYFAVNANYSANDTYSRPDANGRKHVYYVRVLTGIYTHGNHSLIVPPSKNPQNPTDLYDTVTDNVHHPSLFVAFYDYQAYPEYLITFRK

With `O=c1[nH][nH]c(=O)c2cc(OCC3CC3)ccc12`, the IC50 (commonly the concentration at which inhibition is half-maximal) in data set [1] is 0.31 µM; in data set [2] it was over 100 µM; in data set [3], over 100 µM; in data set [4], 1.2 µM; in data set [5], over 10 µM. Further, in the data set with HEK-293T, the Activity entry is reported as “Non-Toxic”.
Turning to `NC(=O)c1ccc(OCc2cncs2)cc1`, the IC50 in data set [1] was 1.6 µM; in data set [2], over 100 µM; in data set [3], over 100 µM; in data set [4] it was 2.4 µM; in data set [5], over 10 µM. For the same compound, the Activity result in the data set with HEK-293T is on record as “Non-Toxic”.
With `NC(=O)c1ccc(OCC2CCCCC2)cc1`, the concentration for half-maximal inhibition (IC50) in data set [1] was 1.7 µM; in data set [2] it was over 100 µM; in data set [3] it was over 100 µM; in data set [4] it was 3.6 µM; in data set [5], over 100 µM. In the data set with HEK-293T, the Activity entry was “Non-Toxic”.
On to `NC(=O)c1ccc(OCC2CCCCC2)cc1OCc1ccccn1`, for which the IC50 in data set [1] is over 10 µM; in data set [2], over 100 µM; in data set [3], over 100 µM; in data set [4], over 10 µM; in data set [5] it was over 10 µM. Also, the Activity entry with HEK-293T is listed as “Non-Toxic”.
Regarding `NC(=O)c1ccc(OCC2CCCC2)cc1`, the IC50 in data set [1] was 0.59 µM; in data set [2], over 100 µM; in data set [3], over 100 µM; in data set [4] it was 3.8 µM; in data set [5], over 10 µM. Besides, in the data set on HEK-293T, the Activity entry was “Non-Toxic”.
For `NC(=O)c1ccc(OCC2CCC2)cc1OCCN1CCNCC1`, the IC50 is over 10 µM in data set [1]; over 100 µM in data set [2]; over 100 µM in data set [3]; over 10 µM in data set [4]; over 10 µM in data set [5]. Also, in the data set on HEK-293T, the Activity result is “Non-Toxic”.
Consider `COc1cc(OCc2cccc3ccccc23)ccc1C(N)=O`, for which the IC50 in data set [1] was 5 µM; in data set [2], over 100 µM; in data set [3], over 100 µM; in data set [4], 2.2 µM; in data set [5], over 100 µM. For the same compound, the Activity result in the data set on HEK-293T was “Non-Toxic”.
For `NC(=O)c1ccc(OCC2CCC2)cc1F`, the IC50 was 0.62 µM in data set [1]; over 100 µM in data set [2]; over 100 µM in data set [3]; 6 µM in data set [4]; over 10 µM in data set [5]. In the data set with HEK-293T, the Activity entry is “Non-Toxic”.
Turning to `COc1cc(OCc2cccc(Br)c2)ccc1C(N)=O`, the IC50 was over 10 µM in data set [1]; over 100 µM in data set [2]; over 100 µM in data set [3]; 2.5 µM in data set [4]; over 100 µM in data set [5]. The Activity entry in the data set with HEK-293T was “Non-Toxic”.
Take `O=c1[nH][nH]c(=O)c2cc(OCC3CCC3)ccc12`: the IC50 in data set [1] is 0.16 µM; in data set [2], over 100 µM; in data set [3], over 100 µM; in data set [4], 0.37 µM; in data set [5], over 10 µM. Moreover, in the data set with HEK-293T, the Activity entry was “Non-Toxic”.
With `NC(=O)c1ccc(OCc2cccc(Br)c2)cc1F`, the IC50 was 1.5 µM in data set [1]; over 100 µM in data set [2]; over 100 µM in data set [3]; 0.6 µM in data set [4]; over 10 µM in data set [5]. The Activity result in the data set with HEK-293T is “Non-Toxic”.
Turning to `O=c1[nH][nH]c(=O)c2cc(OCc3ccccc3F)ccc12`, the IC50 is 0.15 µM in data set [1] and 0.37 µM in data set [4]. In the data set with HEK-293T, the Activity result is recorded as “Non-Toxic”. The midpoint of the response in the data set with HeLa, the EC50, lay at 1.6 µM.
In the case of `NC(=O)c1ccc(OCC2CC2)cc1`, the IC50 in data set [1] was 0.6 µM; in data set [2], over 100 µM; in data set [3], 53 µM; in data set [4], 4.8 µM; in data set [5] it was over 10 µM. In addition, the Activity result in the data set with HEK-293T is “Non-Toxic”.
Take `COc1cc(OCC2CCCCC2)ccc1C(N)=O`: the IC50 in data set [1] was 4.4 µM; in data set [2] it was over 100 µM; in data set [3] it was over 100 µM; in data set [4], 5 µM; in data set [5], over 100 µM. Further, the Activity result in the data set with HEK-293T is “Non-Toxic”.
`O=c1[nH][nH]c(=O)c2cc(OCc3cccc(Br)c3)ccc12`: the IC50 was 1.2 µM in data set [1]; over 100 µM in data set [2]; over 100 µM in data set [3]; 1.3 µM in data set [4]; over 100 µM in data set [5]. In addition, the Activity result in the data set on HEK-293T is listed as “Non-Toxic”.
Take `COc1ccccc1COc1ccc(C(N)=O)c(F)c1`: the IC50 in data set [1] is 8.2 µM; in data set [2], over 100 µM; in data set [3] it was over 100 µM; in data set [4], over 10 µM; in data set [5], 6.8 µM. Moreover, the Activity entry in the data set on HEK-293T is “Non-Toxic”.
As to `NC(=O)c1ccc(OCC2CCCCC2)cc1F`, the IC50 was 0.96 µM in data set [1]; over 100 µM in data set [2]; over 100 µM in data set [3]; over 10 µM in data set [4]; over 10 µM in data set [5]. Besides, the Activity result in the data set with HEK-293T was “Non-Toxic”.
For the compound `O=c1[nH][nH]c(=O)c2cc(OCC3CCCC3)ccc12`, the half-inhibitory concentration (IC50) in data set [1] was 0.13 µM; in data set [2] it was over 100 µM; in data set [3] it was over 100 µM; in data set [4], 0.32 µM; in data set [5], over 10 µM. Further, the Activity entry in the data set with HEK-293T is reported as “Non-Toxic”.
